Among the test systems are A498 renal; NCI-H522 lung; HCT-116 colon; UACC-257 melanoma; NCI-H226 lung; MOLT-4 leukemia; MCF7 breast; UO-31 renal; BT-549 breast; SNB-19 CNS.
Common to all, as to experiment: inhibition of tumour cell growth, NCI panel, 48 h

Our source for the TGI and GI50 values is PubChem BioAssay (NCI).

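Briefly, cells in 96-well plates were exposed to five compound concentrations for 48 h, and endpoints were estimated by linear interpolation. The concentration for 50% growth inhibition is given as GI50. Definition used: TGI = concentration required for complete inhibition of growth.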 Some results are limits rather than exact numbers.

Take `CCn1c2c(n(CC)c1=S)-c1c(n(CC)c(=S)n1CC)SSSS2`: the TGI with A498 renal came to 63.8 µM; in the test on NCI-H522 lung, 3.76 µM; in the test with HCT-116 colon, 11 µM; in the test on UACC-257 melanoma, 22.6 µM; with NCI-H226 lung, 52.2 µM; with MOLT-4 leukemia, 11.1 µM. Also, the TGI in the test on MCF7 breast was 40.7 µM; with UO-31 renal, 21.5 µM; in the test with BT-549 breast, 29.1 µM; with SNB-19 CNS it was more than 100 µM.
Turning to `NC(=NCCCOc1ccc(Cl)cc1)Nc1ccc(Cl)cc1`, the GI50 in the test with A498 renal was 1.92 µM; in the test with NCI-H522 lung, 2.05 µM; in the test with HCT-116 colon, 1.61 µM; with UACC-257 melanoma, 1.91 µM; in the test on NCI-H226 lung it was 3.97 µM; with MOLT-4 leukemia, 1.66 µM. The GI50 is 2.2 µM in the test on MCF7 breast, 2.17 µM in the test with UO-31 renal, 3.35 µM in the test with BT-549 breast and 2.46 µM in the test on SNB-19 CNS. Further, the TGI in the test on A498 renal was determined as 5.43 µM; in the test with NCI-H522 lung, 4.8 µM; in the test with HCT-116 colon, 3.24 µM; in the test with UACC-257 melanoma it was 3.84 µM; with NCI-H226 lung, 19.6 µM; with MOLT-4 leukemia it was 4.66 µM. For the same molecule, the TGI came to 7.35 µM in the test on MCF7 breast, 8.1 µM in the test on UO-31 renal, 10 µM in the test on BT-549 breast and 13.6 µM in the test with SNB-19 CNS.
Regarding `CN(C)c1ccc(/C=C(/NC(=O)c2ccccc2)c2nc3ccc(Cl)cc3[nH]2)cc1`, the TGI in the test on A498 renal was more than 100 µM; in the test with NCI-H522 lung, more than 74.1 µM; with HCT-116 colon, more than 100 µM; in the test with UACC-257 melanoma, more than 86.5 µM; in the test with NCI-H226 lung, more than 85.1 µM; in the test on MOLT-4 leukemia, 71.1 µM. Moreover, the TGI with MCF7 breast was more than 100 µM; with UO-31 renal, more than 100 µM; in the test on BT-549 breast, 85.8 µM; in the test on SNB-19 CNS, more than 100 µM. The GI50 was 24.5 µM in the test with MCF7 breast and 25.4 µM in the test on BT-549 breast.
As for `O=C1OCC(c2cccs2)=C1Cl`, the GI50 in the test with A498 renal was 17.6 µM; in the test on NCI-H522 lung, 42.4 µM; with HCT-116 colon, more than 100 µM; with UACC-257 melanoma, 41 µM; with NCI-H226 lung, 28.2 µM; in the test on MOLT-4 leukemia it was more than 100 µM. The GI50 is 39.3 µM in the test on MCF7 breast, 89 µM with UO-31 renal, 33.4 µM with BT-549 breast and more than 100 µM in the test with SNB-19 CNS. Moreover, the TGI is 63.9 µM in the test on A498 renal; more than 100 µM in the test with NCI-H522 lung; more than 100 µM with HCT-116 colon; more than 100 µM in the test on UACC-257 melanoma; 95.5 µM in the test on NCI-H226 lung; more than 100 µM in the test with MOLT-4 leukemia. The TGI in the test on MCF7 breast, in the test on UO-31 renal, in the test on BT-549 breast and in the test with SNB-19 CNS was more than 100 µM in each case.
`CN1CCCNc2c(c(=O)c2=O)NCCCN(C)CCCNc2c(c(=O)c2=O)NCCCN(C)CCCNc2c(c(=O)c2=O)NCCCN(C)CCCNc2c(c(=O)c2=O)NCCCN(C)CCCNc2c(c(=O)c2=O)NCCCN(C)CCCNc2c(c(=O)c2=O)NCCCN(C)CCCNc2c(c(=O)c2=O)NCCC1`: the GI50 is 2.72 µM with A498 renal; 6.91 µM in the test on NCI-H522 lung; 5.81 µM in the test with HCT-116 colon; 3.61 µM with UACC-257 melanoma; 8.43 µM with NCI-H226 lung; 9.7 µM with MOLT-4 leukemia. Besides, the GI50 in the test on MCF7 breast was 6.52 µM; with UO-31 renal it was 2.01 µM; with BT-549 breast it was 5.69 µM; in the test on SNB-19 CNS, 2.59 µM. Besides, the TGI in the test on A498 renal is 11.1 µM; with NCI-H522 lung, more than 50 µM; in the test with HCT-116 colon, 17.4 µM; in the test on UACC-257 melanoma, 27 µM; with NCI-H226 lung, 21.8 µM; with MOLT-4 leukemia, 45.2 µM. Also, the TGI in the test on MCF7 breast came to 19.5 µM; in the test with UO-31 renal, 9.19 µM; in the test on BT-549 breast, 19.8 µM; in the test with SNB-19 CNS, 33.9 µM.
As to `CC(=O)c1c(C(F)(F)F)n([O-])c2ccc(Cl)cc2[n+]1=O`, the GI50 in the test with A498 renal is 1.33 µM; with NCI-H522 lung it was 2.5 µM; in the test on HCT-116 colon it was 0.662 µM; in the test with UACC-257 melanoma, 4 µM; in the test with NCI-H226 lung, 1.4 µM; in the test with MCF7 breast it was 0.216 µM. For the same molecule, the GI50 in the test on UO-31 renal is 1.92 µM; in the test with BT-549 breast it was 1.14 µM; with SNB-19 CNS it was 4.75 µM. In addition, the TGI is 2.88 µM with A498 renal; 9.62 µM with NCI-H522 lung; 20.8 µM in the test on UACC-257 melanoma; 3.43 µM with NCI-H226 lung; 1.54 µM with MOLT-4 leukemia; 2.65 µM in the test with BT-549 breast. The same molecule yielded a TGI with SNB-19 CNS of more than 27.6 µM.
